Measurements published in patent publication US12161722B2, “Bifunctional heterocyclic compound having BTK degradation function via ubiquitin proteasome pathway, and use thereof” (KOREA RESEARCH INSTITUTE OF CHEMICAL TECHNOLOGY, priority 2021, dated 2024).

Target: T1, WT BTK protein (Homo sapiens, UniProt Q06187)
T1 construct: measured for intracellular BTK protein levels by Western blotting; endogenous in cells; host or cells: TMD-8 or RAMOS cells
Assay: BTK protein degradation assay (Western blotting), WT BTK
Assay type: cell-based
Conditions: concentration range accounting for 50% degradation of WT BTK protein, TMD-8 or RAMOS cells, 24 hours
Procedure: TMD-8, RAMOS, or 293T BTK MUT (C481S) cells were treated with the synthesized compounds and measured for intracellular BTK protein levels by Western blotting. The protocol of the experiment using TMD-8 cells is as follows.
TMD-8 cells were resuspended in an RPMI1640 medium (Hyclone, SH30027.01, 10% FBS (Hyclone, SV30207.02), 1% penicillin-streptomycin (Welgene, LS 202-02) and the cell suspension was seeded at a density of 1×10^6 cells/mL in an amount of 1 mL per well into 12-well plates.
The 12-well plates were treated as follows. A 10 mM stock was 1/10 diluted in series with DMSO ([…]) to form final concentrations of 10, 1, 0.1, 0.01, 0.001, and 0.0001 mM. The compounds with such concentrations were applied to cells, followed by harvesting the cells 24 hours later. For a negative control, a 1/10 dilution of DMSO in the medium (3 mL DMSO+27 mL medium) was used.
The 1-mL cell culture in each well was passed many times through a pipette and then transferred into a 1.5-mL microtube before centrifugation (500 g, 5 min, 4° C.). The supernatant was discarded and the cell pellet was washed with PBS. After centrifugation (500 g, 5 min, 4° C.) again, the supernatant was discarded and the cell pellet was taken.
A lysis buffer was prepared as follows. RIPA buffer (Biosesang, RC2038-050-00)+0.5 mM PMSF (SIGMA, P7626)+1×Protease/Phosphatase Inhibitor (Cell signaling, 5872S) was added in an amount […] per well and left for 30 minutes on ice (vortexing at 0 and 30 minutes) before sonication (5 cycles of pulse for 10 seconds and rest for 30 seconds, 70% amplification). The supernatant obtained by centrifugation (15000 g, 15 min, 4° C.) was transferred into a new microtube. Cells in each well of 96-well plates were 1/2 diluted with the RIPA buffer and incubated at 37° C. for 30 minutes with […] of a 50:1 mixture of BCA reagents A and B in BCA Protein Assay Kit (iNtRON, 21071). After being cooled for 10 minutes, the 96-well plates were measured for absorbance at 562 nm on the BioTek, SYNERGY H1 microplate reader. Samples were prepared by protein quantification based on the absorbance measurements and then boiled at 70° C. for 10 minutes. The sample buffer used in the case was prepared by mixing a NuPAGE or a Bolt 4× sample buffer (Invitrogen) and its 10× sample reducing agent depending on the gel to be used, and protein dilution was made in a RIPI buffer.
The samples were loaded in the same amount into a NuPAGE or Bolt Bis-tris 4-12% gradient gel and allowed to run therein (200 V, 35 minutes). The separated proteins were transferred onto a […] NC membrane, using Trans-blot Turbo (BIO-RAD) (1.3 A constant, 25V limit, 15 minutes). The membrane was blocked at room temperature for 1 hour with skim milk or Intercept Blocking Buffer (LI-COR, 927-60001):0.1% TBST=1:1. The membrane was incubated with Anti BTK Rabbit (1:1,000 in 5% skim milk/0.2% TBST, size: 77 kDa, Cell signaling Technology) at 4° C. overnight O/N or at room temperature for 2 hours and with Anti GAPDH Rabbit (1:10,000 in 5% BSA/0.2% TBST, size: 36 kDa, GENETEX) and Anti β-actin mouse (1:10,000 in 5% BSA/0.2% TBST, RT, size: 43 kDa, GENETEX) at room temperature for 1 or 3 hours. Then, the membrane was washed three times with 0.5% TBST for 5 minutes each time before incubation with the second antibody Anti-Rabbit IgG (1:5,000 in 5% Skim milk/TBST, CST), IRDye® 800CW Goat anti-Rabbit IgG Secondary Antibody (1:10,000 in 5% skim/TBST, RT 45 min), or IRDye® 680RD Goat anti-Mouse IgG Secondary Antibody (1:10,000 in 5% skim/TBST, RT 45 min) for 45 minutes at room temperature in a rocker. The membrane was washed five times with 0.5% TBST for 5 minutes in each time, followed by detection with LI-COR, Odyssey. In this regard, the detection proceeded, as it was, for house-keeping genes while using SuperSignal West Pico PLUS Chemiluminescent Substrate or SuperSignal West femto Maximum Sensitivity Substrate for BTK detection. […]

T1 sequence (Q06187 whole entry): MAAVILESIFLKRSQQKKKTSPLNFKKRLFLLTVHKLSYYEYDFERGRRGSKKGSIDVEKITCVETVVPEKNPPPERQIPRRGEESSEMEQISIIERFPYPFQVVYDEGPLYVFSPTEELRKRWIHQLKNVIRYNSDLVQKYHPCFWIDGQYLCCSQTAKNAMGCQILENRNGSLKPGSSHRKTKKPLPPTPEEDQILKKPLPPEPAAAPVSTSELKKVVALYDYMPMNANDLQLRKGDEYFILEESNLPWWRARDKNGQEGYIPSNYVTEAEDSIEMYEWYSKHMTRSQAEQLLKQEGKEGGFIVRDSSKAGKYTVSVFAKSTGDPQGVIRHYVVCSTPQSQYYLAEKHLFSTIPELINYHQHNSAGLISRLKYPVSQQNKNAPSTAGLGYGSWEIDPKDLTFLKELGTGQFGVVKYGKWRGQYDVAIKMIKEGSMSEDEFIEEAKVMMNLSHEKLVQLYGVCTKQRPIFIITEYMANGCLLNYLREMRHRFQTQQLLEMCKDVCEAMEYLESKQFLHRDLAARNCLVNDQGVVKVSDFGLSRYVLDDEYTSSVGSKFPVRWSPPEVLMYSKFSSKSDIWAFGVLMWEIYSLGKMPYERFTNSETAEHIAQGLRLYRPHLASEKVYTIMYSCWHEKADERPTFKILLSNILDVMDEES

Compound | DC50
Cn1nc(Nc2c(Cl)cccc2Cl)c2cnc(Nc3ccc4c(c3)CN(CC3CCN(c5ccc6c(c5)C(=O)N(C5CCC(=O)NC5=O)C6=O)CC3)CC4)nc21 (centres unmarked) [Compound 82, 5-(4-((7-((3-((2,6-Dichlorophenyl)amino)-1-methyl-1H-pyrazolo[3,4-d]pyrimidin-6-yl)amino)-3,4-dihydroisoquinolin-2 (1H)-yl)methyl)piperidin-1-yl)-2-(2,6-dioxopiperidin-3-yl)isoindoline-1,3-dione] | 0.1 to 10 nM
Cc1ccccc1Nc1nn(C)c2nc(Nc3ccc4c(c3)CN(CC3CCN(c5ccc6c(c5)C(=O)N(C5CCC(=O)NC5=O)C6=O)CC3)CC4)ncc12 (centres unmarked) [Compound 84, 2-(2,6-Dioxopiperidin-3-yl)-5-(4-((7-((1-methyl-3-(o-tolylamino)-1H-pyrazolo[3,4-d]pyrimidin-6-yl)amino)-3,4-dihydroisoquinolin-2 (1H)-yl)methyl)piperidin-1-yl)isoindoline-1,3-dione] | 0.1 to 10 nM
Cc1cccc(C)c1Nc1nn(C)c2nc(Nc3ccc4c(c3)CN(CC3CCN(C(=O)Nc5ccc6c(c5)CN(C5CCC(=O)NC5=O)C6=O)CC3)CC4)ncc12 (centres unmarked) [Compound 92, 4-((7-((3-((2,6-Dimethylphenyl)amino)-1-methyl-1H-pyrazolo[3,4-d]pyrimidin-6-yl)amino)-3,4-dihydroisoquinolin-2 (1H)-yl)methyl)-N-(2-(2,6-dioxopiperidin-3-yl)-1-oxoisoindolin-5-yl)piperidine-1-carboxamide] | 0.1 to 10 nM
Cc1cccc(C)c1Nc1nn(C)c2nc(Nc3ccc4c(c3)CN(C(=O)CN3CCN(c5ccc6c(c5)C(=O)N(C5CCC(=O)NC5=O)C6=O)CC3)CC4)ncc12 (centres unmarked) [Compound 93, 5-(4-(2-(7-((3-((2,6-dimethylphenyl)amino)-1-methyl-1H-pyrazolo [3,4-d]pyrimidin-6-yl)amino)-3,4-dihydroisoquinolin-2 (1H)-yl)-2-oxoethyl)piperazin-1-yl)-2-(2,6-dioxopiperidin-3-yl)isoindoline-1,3-dione] | 10 to 1000 nM
Cc1cccc(C)c1Nc1nn(C)c2nc(Nc3ccc4c(c3)CN(CC(=O)NCc3ccc5c(c3)CN(C3CCC(=O)NC3=O)C5=O)CC4)ncc12 (centres unmarked) [Compound 94, 2-(7-((3-((2,6-dimethylphenyl)amino)-1-methyl-1H-pyrazolo[3,4-d]pyrimidin-6-yl)amino)-3,4-dihydroisoquinolin-2 (1H)-yl)-N-((2-(2,6-dioxopiperidin-3-yl)-1-oxoisoindolin-5-yl)methyl)acetamide] | 10 to 1000 nM
Cc1cccc(C)c1Nc1nn(C)c2nc(Nc3ccc4c(c3)CN(CC(=O)NC3CCN(c5ccc6c(c5)C(=O)N(C5CCC(=O)NC5=O)C6=O)CC3)CC4)ncc12 (centres unmarked) [Compound 97, 2-(7-((3-((2,6-dimethylphenyl)amino)-1-methyl-1H-pyrazolo[3,4-d]pyrimidin-6-yl)amino)-3,4-dihydroisoquinolin-2 (1H)-yl)-N-(1-(2-(2,6-dioxopiperidin-3-yl)-1,3-dioxoisoindolin-5-yl)piperidin-4-yl)acetamide] | 0.1 to 10 nM

Continued, values first:

DC50 | Compound
0.1 to 10 nM | Cc1cccc(C)c1Nc1nn(C)c2nc(Nc3ccc4c(c3)CN(C(=O)CNc3ccc5c(c3)CN(C3CCC(=O)NC3=O)C5=O)CC4)ncc12 (centres unmarked) [Compound 81, 3-(5-((2-(7-((3-((2,6-Dimethylphenyl)amino)-1-methyl-1H-pyrazolo[3,4-d]pyrimidin-6-yl)amino)-3,4-dihydroisoquinolin-2 (1H)-yl)-2-oxoethyl)amino)-1-oxoisoindolin-2-yl)piperidin-2,6-one]
10 to 1000 nM | Cc1ccc(Nc2nn(C)c3nc(Nc4ccc5c(c4)CN(CC4CCN(c6ccc7c(c6)C(=O)N(C6CCC(=O)NC6=O)C7=O)CC4)CC5)ncc23)c(C)c1 (centres unmarked) [Compound 83, 5-(4-((7-((3-((2,4-Dimethylphenyl)amino)-1-methyl-1H-pyrazolo[3,4-d]pyrimidin-6-yl)amino)-3,4-dihydroisoquinolin-2 (1H)-yl)methyl)piperidin-1-yl)-2-(2,6-dioxopiperidin-3-yl)isoindoline-1,3-dione]
0.1 to 10 nM | Cc1cccc(C)c1Nc1nn(C(C)C)c2nc(Nc3ccc4c(c3)CN(CC3CCN(c5ccc6c(c5)C(=O)N(C5CCC(=O)NC5=O)C6=O)CC3)CC4)ncc12 (centres unmarked) [Compound 86, 5-(4-((7-((3-((2,6-Dimethylphenyl)amino)-1-isopropyl-1H-pyrazolo[3,4-d]pyrimidin-6-yl)amino)-3,4-dihydroisoquinolin-2 (1H)-yl)methyl)piperidin-1-yl)-2-(2,6-dioxopiperidin-3-yl)isoindoline-1,3-dione]
10 to 1000 nM | Cc1cccc(C)c1Nc1nn(C)c2nc(Nc3ccc4c(c3)CN(CC3CCN(CC(=O)Nc5ccc6c(c5)C(=O)N(C5CCC(=O)NC5=O)C6=O)CC3)CC4)ncc12 (centres unmarked) [Compound 90, 2-(4-((7-((3-((2,6-Dimethylphenyl)amino)-1-methyl-1H-pyrazolo[3,4-d]pyrimidin-6-yl)amino)-3,4-dihydroisoquinolin-2 (1H)-yl)methyl)piperidin-1-yl)-N-(2-(2,6-dioxopiperidin-3-yl)-1,3-dioxoisoindolin-5-yl)acetamide]
0.1 to 10 nM | Cc1cccc(C)c1Nc1nn(C)c2nc(Nc3ccc4c(c3)CN(CC3CCN(CC(=O)Nc5ccc6c(c5)CN(C5CCC(=O)NC5=O)C6=O)CC3)CC4)ncc12 (centres unmarked) [Compound 91, 2-(4-((7-((3-((2,6-Dimethylphenyl)amino)-1-methyl-1H-pyrazolo[3,4-d]pyrimidin-6-yl)amino)-3,4-dihydroisoquinolin-2 (1H)-yl)methyl)piperidin-1-yl)-N-(2-(2,6-dioxopiperidin-3-yl)-1-oxoisoindolin-5-yl)acetamide]
10 to 1000 nM | Cc1cccc(C)c1Nc1nn(C)c2nc(Nc3ccc4c(c3)CN(CC(=O)N3CCN(c5ccc6c(c5)C(=O)N(C5CCC(=O)NC5=O)C6=O)CC3)CC4)ncc12 (centres unmarked) [Compound 95, 5-(4-(2-(7-((3-((2,6-dimethylphenyl)amino)-1-methyl-1H-pyrazolo[3,4-d]pyrimidin-6-yl)amino)-3,4-dihydroisoquinolin-2 (1H)-yl)acetyl)piperazin-1-yl)-2-(2,6-dioxopiperidin-3-yl)isoindoline-1,3-dione]
0.1 to 10 nM | Cc1cccc(C)c1Nc1nn(C)c2nc(Nc3ccc4c(c3)CN(C(=O)Nc3ccc5c(c3)CN(C3CCC(=O)NC3=O)C5=O)CC4)ncc12 (centres unmarked) [Compound 96, 7-((3-((2,6-dimethylphenyl)amino)-1-methyl-1H-pyrazolo[3,4-d]pyrimidin-6-yl)amino)-N-(2-(2,6-dioxopiperidin-3-yl)-1-oxoisoindolin-5-yl)-3,4-dihydroisoquinoline-2 (1H)-carboxamide]
0.1 to 10 nM | Cc1cccc(C)c1Nc1nn(C)c2nc(Nc3ccc4c(c3)CN(C(=O)CNCc3ccc5c(c3)CN(C3CCC(=O)NC3=O)C5=O)CC4)ncc12 (centres unmarked) [Compound 98, 3-(5-(((2-(7-((3-((2,6-Dimethylphenyl)amino)-1-methyl-1H-pyrazolo[3,4-d]pyrimidin-6-yl)amino)-3,4-dihydroisoquinolin-2 (1H)-yl)-2-oxoethyl)amino)methyl)-1-oxoisoindolin-2-yl)piperidin-2,6-one]
